Experimental data as given in patent US20050282814A1, “Vasculostatic agents and methods of use thereof” (TargeGen, Inc., priority 2002, published 2005).
Where a name gives a salt, the structure may show the parent alone.

What was measured:
[1] = tested on: Lewis lung carcinoma cells; assay: Lewis lung carcinoma lung metastases model, alone or with doxorubicin; assay type: in vivo, Balb/C mice; details: I.P. every 3 days for 3 cycles
Method: (§1) Syngeneic Lewis lung carcinoma cells were injected I.V. in order to establish lung metastases in Balb/C mice. Beginning 10 days after cells were injected, doxorubicin (3 mg/kg) and/or 6,7-bis(4-hydroxyphenyl)-pteridin-4-ylamine, sulfate salt (various doses as shown) was given I.P. every 3 days for 3 cycles. Animals were sacrificed at day 20, lungs were collected, and weighed. Net tumor burden is the weight of tumor-bearing lungs minus the average weight of normal control lungs. N=5/group, p<0.02.
as §1, with “The following experiments show the use of vasculostatic agents of the invention alone and in combination with chemotherapeutic agents for treatment of cancer. […] In the experiment shown in FIG. 2, syngeneic” for “Syngeneic”, “mgikg)” for “mg/kg)”, “salt, (compound A—various” for “salt (various”

[2] = tested on: CT-26 Colon carcinoma cells; assay: CT-26 colon carcinoma lung metastases model, alone or with doxorubicin or docetaxel; assay type: in vivo, Balb/C mice; details: CT-26 lung metastases; I.P. every 3 days for 3 cycles; day 20
Method: FIG. 3 illustrates the effect of compounds administered in conjunction with doxorubicin in an in vivo model of metastatic colon cancer (CT-26 adenocarcinoma). Syngeneic CT-26 Colon carcinoma cells were injected I.V. in order to establish lung metastases in Balb/C mice. Beginning 10 days after cells were injected, indicated test agents were given I.P. every 3 days for 3 cycles. Animals were sacrificed at day 20, lungs were collected, and weighed. Net tumor burden is the weight of tumor-bearing lungs minus the average weight of normal control lungs. N=5/group, p<0.02. In these graphs, compound A is 6,7-bis(4-hydroxyphenyl)-pteridin-4-ylamine sulfate salt, and compound B is 6,7-diphenyl-pteridine-2,4-diamine.
FIG. 4 illustrates the effects of compounds of the present invention for co-drug therapy with Taxotere as described herein. Syngeneic CT-26 Colon carcinoma cells were used in order to establish lung metastases in Balb/C mice as described for FIG. 3. 6,7-bis(4-hydroxyphenyl)-pteridin-4-ylamine, sulfate salt (compound A) and 6,7-diphenyl-pteridine-2,4-diamine (compound B) from FIG. 1 are shown in FIG. 4.
FIG. 6 illustrates the effect of compounds administered in conjunction with docetaxel in the in vivo model of metastatic colon cancer (CT-26 adenocarcinoma) described for FIG. 4. N=5/group, p<0.02. […]

cerebral stroke = assay: Cerebral stroke model, permanent middle cerebral artery occlusion; assay type: in vivo, mice; details: 1 mg/kg BW IV 60 min after ligation, 24 hours
Method: A rodent model of cerebral stroke, in which the middle cerebral artery is permanently occluded, was used to determine whether test agents reduced infarct size at 24 hours.
Cerebral strokes were created in mice by permanent ligation of the middle cerebral artery using a cauterizing tool, followed 60 min later by IV injection of either vehicle alone (50% PEG400 in water) or test agents (at 1 mg/kg BW). Twenty four hours later, brains were sectioned and stained using triphenyltetrazolium chloride to delineate viable from infarcted tissue. Photographic images were then analyzed using morphometric software to calculate infarct area.

angiogenesis = assay: Matrigel plug angiogenesis model (bFGF or VEGF), FITC-lectin; assay type: in vivo, Athymic WeHi (nu/nu) mice; details: 10 mg/kg i.p. bid for four days; matrigel with bFGF or VEGF
Method: FIGS. 13 and 14 illustrate the effects of invention compounds for their capacity to inhibit angiogenesis in vivo. […] Tumor extracellular matrix infused with the 160 ng of the described growth factors were injected subcutaneously in a Balb/C mouse. The described invention compound was injected daily at the described concentration for 5 days. After 5 days the animals were sacrificed and angiogenesis quantified based on the binding of fluorescently labeled, endothelium specific FITC-lectin. In the graph, compound A is 6,7-bis(4-hydroxyphenyl)-pteridin-4-ylamine sulfate salt.
Referring to FIGS. 13 and 14, a murine model of angiogenesis was used to screen compounds for their capacity to inhibit angiogenesis. […] In the graph, compound A is 6,7-bis(4-hydroxyphenyl)-pteridin-4-ylamine sulfate salt. Athymic WeHi (nu/nu) mice were first injected with 400 lls of an ice-cold tumor-derived extracellular matrix substrate, matrigel (Becton-Dickinson) infused with 400 ng/ml of bFGF or VEGF (R&D Systems) which rapidly solidifies into a subdermal plug at body temperature. Mice were subsequently injected intaperitoneally with 10 mg/kg of the indicated compounds bid for four days. […] Twenty minutes after injection of the lectin, mice were euthanized, matrigel plugs were then extracted, solublized in PBS with mechanical grinding and the fluorescent content of individual plugs was quantified. […]

Compound: Nc1ncnc2nc(-c3ccc(O)cc3)c(-c3ccc(O)cc3)nc12 [compound A, 6,7-bis(4-hydroxyphenyl)-pteridin-4-ylamine sulfate salt]
- reduction of tumor burden as a stand alone agent ([1]; lungs weighed at day 20): 25%
- reduction of tumor burden in combination with doxorubicin ([1]; doxorubicin 3 mg/kg, day 20): greater than 90%
- reduction of tumor burden in combination with docetaxel [2]: greater than 80%
- reduction of tumor burden in combination with doxorubicin [2]: greater than 60%
- Infarct area in mm^3 (mean ± SEM) (cerebral stroke): 18.3 ± 2.6 mm^3
- % Infarct reduction (cerebral stroke; vs vehicle): 53%
- inhibition of angiogenesis in vivo (angiogenesis): successfully inhibited angiogenesis in vivo
